± gives the expanded uncertainty stated by the source.
Conditions: Liquid, Closed cell (Static) method

Row | vapor or sublimation pressure (278.15 K) [kPa] | vapor or sublimation pressure (288.15 K) [kPa] | vapor or sublimation pressure (298.15 K) [kPa] | vapor or sublimation pressure (308.15 K) [kPa] | vapor or sublimation pressure (318.15 K) [kPa] | vapor or sublimation pressure (328.15 K) [kPa] | Structure (SMILES)
1 | 3960 ± 8 | 5080 ± 10 | 6425 ± 13 | – | – | – | O=C=O [carbon dioxide]
2 | 234 ± 1 | 327 ± 1 | 451 ± 1 | 611 ± 1 | 805 ± 2 | 1040 ± 2 | FC(C(F)(F)F)C(F)(F)F [1,1,1,2,3,3,3-heptafluoropropane]

Reference: the NIST ThermoML archive (doi:10.1021/je100583z)
